Laboratory results: patent US9012652B2, “Processes for producing cycloalkylcarboxamido-pyridine benzoic acids” (Vertex Pharmaceuticals Incorporated, priority 0208, dated 2015)
Where a name gives a salt, the structure may show the parent alone.

Experiment: solubility in water
Type: physicochemical
Conditions: stated in words in the process description

solubility in water: sparingly soluble
SMILES: Cc1ccc(NC(=O)C2(c3ccc4c(c3)OC(F)(F)O4)CC2)nc1-c1cccc(C(=O)O)c1 [compound 9, 3-(6-(1-(2,2-difluorobenzo[d][1,3]dioxol-5-yl)cyclopropanecarboxamido)-3-methylpyridin-2-yl)benzoic acid.HCL salt]
